The target in this experiment is T1, sigma-1 receptor (Cavia porcellus, UniProt Q60492).
T1 construct: guinea pig brains were homogenized; from tissue; host or cells: guinea pig brain membranes
The experiment is described as follows: Sigma-1 receptor binding ([3H]-(+)-pentazocine, brain membranes). To be noted: [3H]-(+)-pentazocine 0.5 nM, guinea pig brain membranes; for inhibition at 0.01 µM: read-out: Percent Inhibition Percent Concentration (μM) 0.0100 SIGMA-1 receptor; for inhibition at 0.1 µM: read-out: Percent Inhibition Percent Concentration (μM) 0.1000 SIGMA-1 receptor. Here is the method:
Brain membrane preparation and binding assays for the sigma-1 receptor were performed as described (DeHaven-Hudkins et al., Characterization of the binding of [^3H]-(+)-pentazocine to recognition sites in guinea pig brain, Eur. J. Pharmacol. 227, 371-378) with some modifications.
In brief, guinea pig brains were homogenized in 10 vols. (w/v) of Tris-HCl 50 mM, 0.32 M sucrose, pH 7.4, with a Kinematica Polytron PT 3000 at 15000 r.p.m. for 30 s. The homogenate was centrifuged at 1000 g for 10 min at 4° C. and the supernatants collected and centrifuged again at 48000 g for 15 min at 4° C. The pellet was resuspended in 10 volumes of Tris-HCl buffer (50 mM, pH 7.4), incubated at 37° C. for 30 min, and centrifuged at 48000 g for 20 min at 4° C. Following this, the pellet was resuspended in fresh Tris-HCl buffer (50 mM, pH 7.4) and stored on ice until use.
Each assay tube contained 10 μL of [^3H]-(+)-pentazocine (final concentration of 0.5 nM), 900 μL of the tissue suspension to a final assay volume of 1 mL and a final tissue concentration of approximately 30 mg tissue net weight/mL. Non-specific binding was defined by addition of a final concentration of […] haloperidol. All tubes were incubated at 37° C. for 150 min before termination of the reaction by rapid filtration over Schleicher & Schuell GF 3362 glass fibre filters [previously soaked in a solution of 0.5% polyethylenimine for at least 1 h]. Filters were then washed with four times with 4 mL of cold Tris-HCl buffer (50 mM, pH 7.4). Following addition of scintillation cocktail, the samples were allowed to equilibrate overnight. The amount of bound radioactivity was determined by liquid scintillation spectrometry using a Wallac Winspectral 1414 liquid scintillation counter. Protein concentrations were determined by the method of Lowry et al. (Protein measurement with the Folin phenol reagent, J. Biol. Chem, 193, 265).
The binding of the compounds of the present invention to sigma-1 receptors was tested as described above.

[1] abbreviates: compound concentration 0.0100 μM.
The mark [2] stands for this setting: compound concentration 0.1000 μM.

T1 sequence (Q60492 whole entry): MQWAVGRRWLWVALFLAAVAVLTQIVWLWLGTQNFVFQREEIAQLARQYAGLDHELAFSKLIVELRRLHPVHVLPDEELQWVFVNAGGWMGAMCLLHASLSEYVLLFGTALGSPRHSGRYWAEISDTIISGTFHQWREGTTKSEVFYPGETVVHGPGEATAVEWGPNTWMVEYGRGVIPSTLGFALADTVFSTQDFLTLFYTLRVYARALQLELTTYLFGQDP

Consider `CC1(C)[C@@H](CCO)C[C@H]1CN1CCCCC1` [compound 17], for which the affinity corresponds to a Ki of 41.8 nM. Besides, the inhibition at 0.01 µM under setting [1] was 45.2%. Also, under setting [2], the inhibition at 0.1 µM was determined as 61.5%.
`CC1(C)[C@@H](CCOCc2ccccc2)C[C@H]1CN1CCSCC1` [compound 30] displayed an inhibition constant Ki of 1 nM. In addition, the inhibition at 0.01 µM under setting [1] turned out to be 74%. The inhibition at 0.1 µM under setting [2] was found to be 91.8%.
Consider `CN1CCN(C[C@@H]2C[C@H](CCOCc3ccccc3)C2(C)C)CC1.O=C(O)C(=O)O` [compound 35], for which the Ki turned out to be 5.3 nM. The “Percent Inhibition Percent Concentration (μM) 0.0100 SIGMA-1 receptor” value under setting [1] turned out to be 76.7%. Besides, under setting [2], the “Percent Inhibition Percent Concentration (μM) 0.1000 SIGMA-1 receptor” value was 95.9%.
Compound `CN(Cc1ccccc1)CC1CC(CCO)C1(C)C` (centres unmarked) [compound 24] yielded an inhibitory constant (Ki) of 3.3 nM. Moreover, the inhibition at 0.01 µM under setting [1] worked out at 69.7%. The inhibition at 0.1 µM under setting [2] came to 92%.
For `CC1(C)[C@@H](CCn2cncn2)C[C@H]1CN1CCCCC1` [compound 50], under setting [1], the inhibition at 0.01 µM was found to be 2%. Further, the inhibition at 0.1 µM under setting [2] amounted to 20.9%.
On the same counts, the results for `CC1(C)[C@@H](CCN2CCCC(c3ccccc3)C2)C[C@H]1CN1CCOCC1` (some centres unmarked) [compound 40] are 16.3% and 60.1%.
For `CC1(C)[C@@H](CCN2CCc3ccccc3C2)C[C@H]1CN1CCOCC1` [compound 47] the same measures were 36.8% and 92%.
For `CC1(C)[C@@H](CCn2ccnc2)C[C@H]1CN1CCCCC1` [compound 48] the same measures were 34.3% and 72.4%.
In the case of `CC(O)[C@@H]1C[C@H](CCN2CCCCC2)C1(C)C` (some centres unmarked) [compound 12], the inhibition at 0.01 µM under setting [1] worked out at 5.5%. The inhibition at 0.1 µM under setting [2] came to 44.1%.
`CC1(C)[C@@H](CCOCc2ccccc2)C[C@H]1CN1CCCCC1` [compound 27] registered an inhibitory constant (Ki) of 1.1 nM. In addition, under setting [1], the inhibition at 0.01 µM was determined as 96.5%. Moreover, the inhibition at 0.1 µM under setting [2] amounted to 104%.
On the same counts, the results for `CC1(C)[C@H](CCOCc2ccccc2)C[C@@H]1CN1CCCCC1` [compound 2] are 1.5 nM, 66.5% and 95.9%.
`CC1CCN(C[C@@H]2C[C@H](CCO)C2(C)C)CC1` [compound 21]: the inhibition at 0.01 µM under setting [1] is 25.7%. The inhibition at 0.1 µM under setting [2] was determined as 77.1%.
As to `CC1(C)[C@@H](CCn2ccc3c2CCCC3=O)C[C@H]1CN1CCOCC1` [compound 46], the Ki is 13.5 nM. Also, under setting [1], the inhibition at 0.01 µM is 50.2%. Moreover, the inhibition at 0.1 µM under setting [2] stood at 83%.
On the same counts, the results for `CN1CCN(C[C@@H]2C[C@H](COCc3ccccc3)C2(C)C)CC1` [compound 10] are 0.95 nM, 86.7% and 99.5%.
Take `CC(O)[C@@H]1C[C@H](CCN2CCOCC2)C1(C)C` (some centres unmarked) [compound 11]: the inhibition at 0.01 µM under setting [1] was -8.3%. Besides, the inhibition at 0.1 µM under setting [2] worked out at 44.4%.
In turn, `CC1(C)[C@@H](CCOCc2ccccc2)C[C@H]1CN1CCN(c2ccccc2)CC1` [compound 36] displayed a Ki of 47 nM. Besides, the inhibition at 0.01 µM under setting [1] worked out at 65.8%. Under setting [2], the inhibition at 0.1 µM is 88.3%.

The values are drawn from patent US20100105680A1, “SUBSTITUTED DIMETHYLCYCLOBUTYL COMPOUNDS, THEIR PREPARATION AND USE IN MEDICAMENTS” (priority 2006, published 2010).
